According to US8940911B2, “Squarylated lactones inhibitors for bacterial biofilm formation” (Syracuse University, priority 2012, dated 2015):

What was measured:
SK-N-SH cells = test: Human neuroblastoma cancer cell cytotoxicity assay (CCK-8); type: cell-based; conditions: 200 or 300 μM, 1 h exposure, read after 24 h
Protocol: After examining the efficacy of SHLs at inhibiting biofilm, dispersing established biofilms, and reducing the maximum thickness of biofilms without being toxic to the planktonic bacterial cells, we tested the cytotoxicity of the key potent SHLs on the human neuroblastoma cancer cell line SK-N-SH. These studies were conducted such that the SK-N-SH cells were subjected to the maximum concentrations of the key potent SHLs tested on bacteria.
A previously grown T-flask of SK-N-SH cells was observed under a microscope to confirm the confluence of the cells. Next, the old media was discarded and the adherent cells were washed with ˜10 mL of MEM(−). The wash was discarded and 2 mL of Trypsin-EDTA solution was added to the T-flask and incubated for 10 minutes at 37° C. and at 5% atmosphere of CO2. Afterwards, the flask was viewed under a microscope to determine if the cells were suspended in the solution. Subsequently, ˜8 mL of MEM(+) was added to the flask and carefully mixed via pipette to break-up any large clusters of cells. 100 μL of the culture was added to an Eppendorf tube and combined with 100 μL of […]. A hemocytometer and glass cover slide was carefully cleaned with a kimwipe and ethanol. Placing the glass cover slide on top of the hemocytometer, 10 μL of the mixture in the Eppendorf tube was pipetted into the two grooves on the hemocytometer, avoiding the generation of bubbles. The hemocytometer was viewed one chamber at time under a microscope and the live cells were counted using the hemocytometer cell counting method. The remaining cell culture in the T-flask was diluted with MEM(+) to 25 mL such that there would be ˜5000 cells/mL. 100 μL of the culture was placed into wells on a 96 well plate such that one column had only MEM(+) and the wells on the outer perimeter of the plate were left empty. Four plates were made in this manner so that there would be plates for times 0, 24, 48, and 72 h. The plate was then incubated for 24 h at 37° C. and at 5% atmosphere of CO2. Subsequently, the old media was discarded and the wells were subjected to either 200 μM or 300 μM solutions of compounds 3, 4, 8, and 46 in MEM(+) (100 μL) such that one column still contained only MEM(+) and one column contained MEM(+) and untreated cells. The plate was incubated for 1 h and then the solutions were discarded and fresh MEM(+) media was added (100 μL). Each plate was then incubated for the desired time (0, 24, 48, or 72 h). After incubation, 10 μL of CCK-8 solution was added to each well and then the plate was incubated for 2 h followed by reading the OD450 with a microplate reader.

E. coli RP437 = test: Static biofilm dispersion assay (established biofilm, crystal violet); type: cell-based, Escherichia coli; conditions: established 24 h E. coli RP437 biofilm, 200 μM, further 24 h
Excerpt: Apart from the design and development of molecules that display bacterial biofilm inhibition, perhaps the greater challenge is to construct small molecules that will effectively disperse established biofilm. Generally, treatment of chronic microbial infections is commonly hindered by the presence of established biofilms that offer increased resistance to the entry of antibiotics and prevent their mode of action. In fact, bacteria in the biofilms are known to be greater than 1000-fold resistant to microbicides. […] E. coli RP437 strain was allowed to form biofilms over 24 h in the absence of any inhibitor. […]
An overnight culture of E. coli RP437 grown in LB media (OD600 of 1.0) containing streptomycin (10 μg/mL) was subsequently sub-cultured to an OD600 of 0.03-0.04 (1:100 dilution with LB media). […] Finally, the biofilm formed was quantified by transferring 100 μL of the ethanol solution into a fresh polystyrene microtiter dish that was subsequently read by an absorbance plate reader (A600). After elimination of background absorbance, the percentage dispersion was calculated by dividing the amount of absorbed crystal violet in wells that contained the synthetic compound by the amount of absorbed crystal violet in wells that contained bacteria only (control). […]

C=Cc1c(NC2CCOC2=O)c(=O)c1=O (stereo not shown) [vinyl-SHL 3]
cytotoxicity on human neuroblastoma cancer cells (in words) (SK-N-SH cells): toxic
biofilm dispersal (in words) (E. coli RP437): a quarter of biofilm being dispersed

CC1=C(Br)/C(=C/Br)OC1=O [BF8 48, reference compound]
biofilm dispersal ability (E. coli RP437): 39%

CCCCOc1c(NC2CCCC2)c(=O)c1=O [butoxy-SCPA 46]
cytotoxicity on human neuroblastoma cancer cells (in words) (SK-N-SH cells): toxic
